Legend:
[1] = excess molar enthalpy (molar enthalpy of mixing); xn = mol fraction of the nth substance listed; conditions: 298.15 K, 101.33 kPa, Liquid, Flow calorimetry
[2] = 298.15 K; 101.33 kPa; Liquid; Vibrating tube method

C1CCOC1 [tetrahydrofuran] + CCCCCC
[1]
Conditions | excess molar enthalpy [kJ/mol]
x1 = 0.05 | 0.152
x1 = 0.1 | 0.284
x1 = 0.1499 | 0.394
x1 = 0.2001 | 0.493
x1 = 0.25 | 0.5737
x1 = 0.2998 | 0.6435
x1 = 0.3503 | 0.6881
x1 = 0.4003 | 0.7249
x1 = 0.4504 | 0.748
x1 = 0.5005 | 0.7507
x1 = 0.5508 | 0.7501
x1 = 0.6003 | 0.7294
x1 = 0.6503 | 0.6959
x1 = 0.7002 | 0.6461
x1 = 0.75 | 0.581
x1 = 0.8015 | 0.499
x1 = 0.8501 | 0.396
x1 = 0.8998 | 0.29
x1 = 0.9499 | 0.153

C1CCOC1 [tetrahydrofuran] + CCCCCCCCCC
[1]
Conditions | excess molar enthalpy [kJ/mol]
x1 = 0.05 | 0.155
x1 = 0.0999 | 0.303
x1 = 0.15 | 0.435
x1 = 0.2 | 0.5471
x1 = 0.2503 | 0.6456
x1 = 0.3 | 0.7312
x1 = 0.3498 | 0.8044
x1 = 0.4002 | 0.8643
x1 = 0.4509 | 0.8958
x1 = 0.4999 | 0.9208
x1 = 0.5499 | 0.9295
x1 = 0.6002 | 0.9219
x1 = 0.6501 | 0.8925
x1 = 0.7003 | 0.8437
x1 = 0.7502 | 0.774
x1 = 0.8003 | 0.6783
x1 = 0.8502 | 0.5606
x1 = 0.9011 | 0.41
x1 = 0.95 | 0.228

CCCCCCCCCC [decane]
Conditions | mass density [kg/m3]
[2] | 726.37

C1CCCCC1 [cyclohexane]
Conditions | mass density [kg/m3]
[2] | 773.92

C1CCOC1 [tetrahydrofuran] + C1CCCCC1
[1]
Conditions | excess molar enthalpy [kJ/mol]
x1 = 0.05 | 0.161
x1 = 0.1 | 0.297
x1 = 0.15 | 0.413
x1 = 0.2001 | 0.5063
x1 = 0.2499 | 0.5853
x1 = 0.2997 | 0.6397
x1 = 0.35 | 0.6843
x1 = 0.4003 | 0.714
x1 = 0.4504 | 0.728
x1 = 0.4999 | 0.73
x1 = 0.5498 | 0.7206
x1 = 0.6 | 0.6957
x1 = 0.65 | 0.6564
x1 = 0.7003 | 0.604
x1 = 0.7498 | 0.5289
x1 = 0.8 | 0.451
x1 = 0.8505 | 0.359
x1 = 0.9003 | 0.25
x1 = 0.95 | 0.129

CCCCCC [hexane]
Conditions | mass density [kg/m3]
[2] | 655.42

C1CCOC1 [tetrahydrofuran]
Conditions | mass density [kg/m3]
[2] | 882.09

From the NIST ThermoML archive (doi:10.1021/je020159m)
